Measured values as given in patent US20210032369A1, “METHODS RELATED TO PARKINSON?S DISEASE AND SYNUCLEINOPATHIES” (The Scripps Research Institute, priority 2018, published 2021).

Test system: Pα-syn* aggregates in PFF-seeded primary hippocampal neurons
Test: Autophagy modulation assay: Pα-syn* aggregates in PFF-seeded primary hippocampal neurons
Assay type: cell-based, mouse
Conditions: treated from day 3.5 to day 6 post-PFF exposure, rapamycin 300 nM, chloroquine 1 μM, 3-Methyladenine 1 mM, 200 cells counted blinded, versus vehicle
Procedure: Primary neuronal cultures and PFFs seeding: Primary neuronal cultures were prepared from E16-E18 C57BL/6 mouse brains (Charles River Laboratories) using standard procedures. For immunofluorescence experiments, dissociated hippocampal neurons were plated onto poly-L-lysine coated glass coverslips placed in 24-well plates, at a cell density of 125,000 cells/well. For biochemical assays, dissociated cortical neurons were plated onto poly-L-lysine-coated 6-well plates at a cell density of 1,000,000 cells/well. Neuronal cultures were seeded with PFFs at 5-6 days in vitro (DIV). […] Just before seeding, PFFs were diluted in PBS at 0.1 mg/ml, sonicated during 30 sec (0.5 sec ON, 0.5 sec OFF, power 30%), and diluted in neuronal media. Two μg/ml PFFs (final) per well were added on 24-well plates for immunofluorescence experiments, and 4 μg/ml PFFs (final) per well were added to 6-well plates for biochemical assays. In the case of control conditions, an equivalent volume of PBS was added to the neuronal cultures. Autophagy modulation assays: Dissociated hippocampal neurons were plated onto poly-L-lysine coated glass coverslips placed in 24-well plates, at a cell density of 125,000 cells/well and seeded with PFFs (or equivalent volume of PBS for the control) at 5-6 DIV. […] Thereafter, neuronal cultures were grown for an extra 2.5 days until a total of 6 days after PFF seeding, were fixed and processed for immunofluorescence. In order to assess the effect of autophagy modulation on Pα-syn* generation, a total of 200 cells per treatment were evaluated and the number of Pα-syn* aggregates per cells was counted in a blinded fashion at 100× magnification. Immunofluorescence experiments: Neurons were fixed for 30 min at room temperature with 4% (w/v) paraformaldehyde in PBS containing 4% (w/v) sucrose. Neurons were washed with PBS, permeabilized with 0.2% (v/v) Triton X-100 in PBS for 6 min, washed again in PBS and blocked for 1 hour at room temperature. […]

SMILES | number of Pα-syn* aggregates per cell | number of Pα-syn* aggregates per cell (listed as 3-MA)
Cn1cnc(N)c2ncnc1-2 [3-Methyladenine] | decrease | fewer
CCN(CC)CCCC(C)Nc1ccnc2cc(Cl)ccc12 (stereo not drawn) [chloroquine] | fewer | –
